Laboratory results taken from patent US9839629B2, “Inhibitors of the renal outer medullary potassium channel” (Merck Sharp & Dohme Corp., priority 2013, dated 2017).

Each compound was assayed against T1, ROMK (Kir1.1) channel (Homo sapiens, UniProt P48048) (assay: Thallium Flux Assay).
T1 sequence (P48048 1-391): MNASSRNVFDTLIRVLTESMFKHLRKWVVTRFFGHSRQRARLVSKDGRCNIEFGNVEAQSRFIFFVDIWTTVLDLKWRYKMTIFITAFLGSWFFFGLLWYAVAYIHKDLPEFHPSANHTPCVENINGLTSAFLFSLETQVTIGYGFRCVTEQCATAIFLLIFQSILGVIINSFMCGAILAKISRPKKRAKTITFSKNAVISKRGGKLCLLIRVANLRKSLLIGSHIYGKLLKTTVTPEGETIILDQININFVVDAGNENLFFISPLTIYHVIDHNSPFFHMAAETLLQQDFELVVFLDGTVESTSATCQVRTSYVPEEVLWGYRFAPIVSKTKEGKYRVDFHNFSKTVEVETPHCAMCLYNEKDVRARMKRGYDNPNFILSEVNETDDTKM
Format: cell-based
Method in brief: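 Thallium flux assay as described in WO 2013/062900. Compounds supplied as HCl salts were tested in salt form.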

For `Cc1c(N2CCC3(CCN(C[C@@H](O)c4ccc(-n5cnnn5)nc4)CC3)CC2)c(=O)c1=O` [Example 82, (S)-3-(9-(2-(6-(1H-tetrazol-1-yl)pyridin-3-yl)-2-hydroxyethyl)-3,9-diazaspiro[5.5]undecan-3-yl)-4-methylcyclobut-3-ene-1,2-dione], which IC50 is on record?
The IC50 was 34 nM.

How did the IC50 turn out when `Cc1c(N2CCC3(CCN(C[C@H](O)c4ccc(-n5cnnn5)nn4)CC3)CC2)c(=O)c1=O` [Example 83, (S)-3-(9-(2-(6-(1H-tetrazol-1-yl)pyridazin-3-yl)-2-hydroxyethyl)-3,9-diazaspiro[5.5]undecan-3-yl)-4-methylcyclobut-3-ene-1,2-dione] was run?
The IC50 was 317 nM.

For `Cc1c(N2CCC3(CCN(C[C@@H](O)c4ccc(-n5cnnn5)nn4)CC3)CC2)c(=O)c1=O` [Example 84, (R)-3-(9-(2-(6-(1H-tetrazol-1-yl)pyridazin-3-yl)-2-hydroxyethyl)-3,9-diazaspiro[5.5]undecan-3-yl)-4-methylcyclobut-3-ene-1,2-dione], which IC50 is on record?
The IC50 was 765 nM.

For `Cc1c(N2CCC3(CCN(C[C@H](O)c4cnc(-n5cnnn5)cn4)CC3)CC2)c(=O)c1=O` [Example 85, (S)-3-(9-(2-(5-(1H-tetrazol-1-yl)pyrazin-2-yl)-2-hydroxyethyl)-3,9-diazaspiro[5.5]undecan-3-yl)-4-methylcyclobut-3-ene-1,2-dione], which IC50 is on record?
Its IC50 is 80 nM.

How did the IC50 turn out when `Cc1c(N2CCC3(CCN(C[C@@H](O)c4cnc(-n5cnnn5)cn4)CC3)CC2)c(=O)c1=O` [Example 86, (R)-3-(9-(2-(5-(1H-tetrazol-1-yl)pyrazin-2-yl)-2-hydroxyethyl)-3,9-diazaspiro[5.5]undecan-3-yl)-4-methylcyclobut-3-ene-1,2-dione] was run?
The IC50 was 336 nM.

For `Cc1c(N2CCC3(CCN(C[C@H](O)c4ccc(-n5cnnn5)cn4)CC3)CC2)c(=O)c1=O` [Example 87, (S)-3-(9-(2-(5-(1H-tetrazol-1-yl)pyridin-2-yl)-2-hydroxyethyl)-3,9-diazaspiro[5.5]undecan-3-yl)-4-methylcyclobut-3-ene-1,2-dione], which IC50 is on record?
The IC50 was 688 nM.

Which IC50 does the source give for `Cc1c(N2CCC3(CCN(C[C@H](O)c4ccc5c(ccc6nnnn65)c4)CC3)CC2)c(=O)c1=O` [Example 88, (R)-3-(9-(2-hydroxy-2-(tetrazolo[1,5-a]quinolin-7-yl)ethyl)-3,9-diazaspiro[5.5]undecan-3-yl)-4-methylcyclobut-3-ene-1,2-dione] here?
Its IC50 is 223 nM.

How did the IC50 turn out when `Cc1c(N2CCC3(CCN(C[C@@H](O)c4ccc5c(ccc6nnnn65)c4)CC3)CC2)c(=O)c1=O` [Example 89, (S)-3-(9-(2-hydroxy-2-(tetrazolo[1,5-a]quinolin-7-yl)ethyl)-3,9-diazaspiro[5.5]undecan-3-yl)-4-methylcyclobut-3-ene-1,2-dione] was run?
The IC50 was 257 nM.

`CO[C@H](CN1CCC2(CC1)CCN(C1=CC(=O)OC1)CC2)c1ccc2c(c1C)COC2=O` [Example 90, (S)-5-(1-methoxy-2-(9-(5-oxo-2,5-dihydrofuran-3-yl)-3,9-diazaspiro[5.5]undecan-3-yl)ethyl)-4-methylisobenzofuran-1(3H)-one] was tested. Which IC50 did it give?
The IC50 was 165 nM.

How did the IC50 turn out when `CO[C@@H](CN1CCC2(CC1)CCN(C1=CC(=O)OC1)CC2)c1ccc2c(c1C)COC2=O` [Example 91, (R)-5-(1-methoxy-2-(9-(5-oxo-2,5-dihydrofuran-3-yl)-3,9-diazaspiro[5.5]undecan-3-yl)ethyl)-4-methylisobenzofuran-1(3H)-one] was run?
The IC50 was 198 nM.

With `CCOC1OC(=O)C=C1N1CCC2(CCN(C[C@H](O)c3ccc4c(c3C)COC4=O)CC2)CC1` (stereo partly drawn) [Example 92, 5-((1R)-2-(9-(2-ethoxy-5-oxo-2,5-dihydrofuran-3-yl)-3,9-diazaspiro[5.5]undecan-3-yl)-1-hydroxyethyl)-4-methylisobenzofuran-1(3H)-one] as the compound, how does the IC50 read?
Its IC50 is 539 nM.

With `Cc1c([C@@H](O)CN2CCC3(CC2)CCN(C2=CC(=O)OCC2)CC3)ccc2c1COC2=O` [Example 93, 5-{(1R)-1-hydroxy-2-[9-(6-oxo-3,6-dihydro-2H-pyran-4-yl)-3,9-diazaspiro[5.5]undec-3-yl]ethyl}-4-methyl-2-benzofuran-1(3H)-one] as the compound, how does the IC50 read?
Its IC50 is 146 nM.

With `CC1=C(N2CCC3(CCN(C[C@H](O)c4ccc5c(c4C)COC5=O)CC3)[C@@H](O)C2)COC1=O` [Example 94, 5-{(1R)-1-hydroxy-2-[(7R)-7-hydroxy-9-(4-methyl-5-oxo-2,5-dihydrofuran-3-yl)-3,9-diazaspiro[5.5]undec-3-yl]ethyl}-4-methyl-2-benzofuran-1(3H)-one] as the compound, how does the IC50 read?
The IC50 was 639 nM.

How did the IC50 turn out when `COCO[C@H]1CN(C2=C(C)C(=O)OC2)CCC12CCN(C[C@H](O)c1ccc3c(c1C)COC3=O)CC2` [Example 95, 5-{(1R)-1-hydroxy-2-[(7R)-7-(methoxymethoxy)-9-(4-methyl-5-oxo-2,5-dihydrofuran-3-yl)-3,9-diazaspiro[5.5]undec-3-yl]ethyl}-4-methyl-2-benzofuran-1(3H)-one] was run?
The IC50 was 114 nM.

For `COCO[C@@H]1CN(C2=C(C)C(=O)OC2)CCC12CCN(C[C@H](O)c1ccc3c(c1C)COC3=O)CC2` [Example 96, 5-{(1R)-1-hydroxy-2-[(7S)-7-(methoxymethoxy)-9-(4-methyl-5-oxo-2,5-dihydrofuran-3-yl)-3,9-diazaspiro[5.5]undec-3-yl]ethyl}-4-methyl-2-benzofuran-1(3H)-one], which IC50 is on record?
Its IC50 is 132 nM.

Which IC50 does the source give for `CO[C@H]1CN(C2=C(C)C(=O)OC2)CCC12CCN(C[C@H](O)c1ccc3c(c1C)COC3=O)CC2` [Example 97, 5-{(1R)-1-hydroxy-2-[(7R)-7-methoxy-9-(4-methyl-5-oxo-2,5-dihydrofuran-3-yl)-3,9-diazaspiro[5.5]undec-3-yl]ethyl}-4-methyl-2-benzofuran-1(3H)-one] here?
The IC50 was 42 nM.

With `CO[C@@H]1CN(C2=C(C)C(=O)OC2)CCC12CCN(C[C@H](O)c1ccc3c(c1C)COC3=O)CC2` [Example 98, 5-{(1R)-1-hydroxy-2-[(7S)-7-methoxy-9-(4-methyl-5-oxo-2,5-dihydrofuran-3-yl)-3,9-diazaspiro[5.5]undec-3-yl]ethyl}-4-methyl-2-benzofuran-1(3H)-one] as the compound, how does the IC50 read?
Its IC50 is 53 nM.

For `O=C1C=C(N2CCC3(CCN(C(=O)Cc4ccc(-n5cnnn5)nc4)CC3)CC2)CO1` [Example 99, 4-(9-(2-(6-(1H-tetrazol-1-yl)pyridin-3-yl)acetyl)-3,9-diazaspiro[5.5]undecan-3-yl)furan-2(5H)-one], which IC50 is on record?
Its IC50 is 109 nM.

`O=C1C=C(N2CCC3(CCN(C(=O)Cc4c(F)cc(-n5cnnn5)cc4F)CC3)CC2)CO1` [Example 100, 4-(9-{[2,6-difluoro-4-(1H-tetrazol-1-yl)phenyl]acetyl}-3,9-diazaspiro[5.5]undec-3-yl)furan-2(5H)-one] was tested. Which IC50 did it give?
The IC50 was 408 nM.

With `O=C1C=C(N2CCC3(CCN(C(=O)Cc4cnc(-n5cnnn5)c(F)c4)CC3)CC2)CO1` [Example 101, 4-(9-{[5-fluoro-6-(1H-tetrazol-1-yl)pyridin-3-yl]acetyl}-3,9-diazaspiro[5.5]undec-3-yl)furan-2(5H)-one] as the compound, how does the IC50 read?
Its IC50 is 246 nM.

`O=C1C=C(N2CCC3(CCN(C(=O)Cc4ccc(-n5cnnn5)cc4)CC3)CC2)CO1` [Example 102, 4-(9-{[4-(1H-tetrazol-1-yl)phenyl]acetyl}-3,9-diazaspiro[5.5]undec-3-yl)furan-2(5H)-one] was tested. Which IC50 did it give?
The IC50 was 116 nM.

Which IC50 does the source give for `O=C1C=C(N2CCC3(CCN(C(=O)C4CCc5cc(-n6cnnn6)ncc54)CC3)CC2)CO1` (stereo not shown) [Example 103, 4-(9-{[3-(1H-tetrazol-1-yl)-6,7-dihydro-5H-cyclopenta[c]pyridin-7-yl]carbonyl}-3,9-diazaspiro[5.5]undec-3-yl)furan-2(5H)-one] here?
The IC50 was 132 nM.
